Key:
TNF-α = experiment: Plasma TNF-α level, rats with TNBS-induced colitis; type: in vivo; conditions: 1.11 mmol/kg, vs untreated colitis group M, FIG. 30
Procedure: Colonic inflammation was induced by intracolonic administration of TNBS (2,4,6-trinitrobenzenesulfonic acid) (40 mg/kg in 0.25 ml of 25% aqueous ethanol) through an 8-cm-long soft plastic catheter under transient diethylether anesthesia. In the sham-operated groups, only the vehicle for TNBS was administered. The animals were deprived of food, but not water, for 12 h before the enemas.
Plasma TNF-α concentrations were determined in duplicate by means of a commercially available enzyme-linked immunosorbent assay (Quantikine ultrasensitive enzyme-linked immunosorbent assay kit for rat TNF-α; Biomedica Hungaria Kft, Budapest, Hungary). […]
The above-described clinical studies were repeated with animals having colitis which was induced as described above. […] Two days after the enema the effects of the treatment were determined by measurement of body weight, blood gas analysis and biopsy. […] Surgery was performed to allow registration of the hemodynamic parameters at 1 h intervals for 6 h (cardiac output [CO] data were measured only at the end of the experiments). […] In addition, fluorescence confocal endomicroscopy was performed to examine the microvasculature and morphologic changes of the mucosa of the distal colon, and full-thickness tissue samples and venous blood samples were taken to determine the biochemical changes in the colon and plasma.

[1] = system: collagen-induced arthritis (CIA); experiment: Collagen-induced arthritis (CIA), clinical evaluation; type: in vivo; conditions: mice, 1.11 mmol/kg force-fed from first immunization until end
Procedure: Further clinical studies were performed with animals having collagen-induced arthritis (CIA). In these studies, mice were used as test animals. At the age of eight weeks, the animals were immunized intradermally at the base of the tail with 50 μl of bovine collagen II emulsified in 50 μl of complete Freund's adjuvant. A second booster immunization was performed 3 weeks later, when 50 μl of incomplete Freund's adjuvant was administered with or without the same volume of collagen H. The animals were randomly allocated into experimental groups wherein group 1 served as control, having no arthritis, group 2 served as second control having arthritis, but receiving no further treatment, and group 3 having arthritis and being treated with compound according to the invention. The animals of group 3 were force-fed 1.11 mmol/kg body weight of the compound according to the invention from the first immunization until the end of the experiments. The severity of CIA was evaluated using a clinical scoring system; inflammatory hyperalgesia was detected with thermal stimulation. […]

Compound: CC(=O)Oc1ccccc1C(=O)NC(CO)(CO)CO [compound according to the invention]
- plasma TNF-α level (TNF-α): significant decrease in the TNF-α level
- severity of CIA (clinical scoring system of Nandakumar) ([1]; vs untreated arthritis group 2, FIG. 36): less serious arthritis
- incidence of CIA ([1]; same in untreated arthritis group 2, FIG. 36): 90%
